The record followed here is ChEMBL document CHEMBL1123377, “Potent antagonists of vasopressin antidiuretic activity that lack the beta,beta-cyclopentamethylene-beta-mercaptopropionic acid substitution at position 1” (J Med Chem, 1986).

For assay [1], the system named is Rattus norvegicus. Kind of assay: Compound was tested in vivo to lower urine osmolality to 300 mOsm/kg in hydropenic rat preparation. Type of assay: functional.
For assay [2], the target named is Vasopressin V2 receptor (Sus scrofa) (UniProt P32307). Kind of assay: Compound was tested for binding affinity against V2 vasopressin receptor in pig renal medullary membrane preparations using tritiated LVP. Type of assay: cell membranes. The settings on record: Renal medulla.
The species entered for a further assay is Sus scrofa. Kind of assay: Compound was tested for adenylate cyclase activation in pig renal medullary membrane preparations. The following applies: Renal medulla. Type of assay: functional.
The subject of assay [3] is Rattus norvegicus. In words: Compound was tested in vivo to lower urine osmolality to 300 mOsm/kg in hydropenic rat preparation; na=No activity. Type of assay: functional, organism-based.
Assay [4] has as its target T1, Vasopressin V2 receptor (Sus scrofa, UniProt P32307). In words: Compound was tested for inhibition against V2 vasopressin receptor in pig renal medullary membrane preparations; e=Partial agonist with a relative Vmax of 14%. Type of assay: functional, cell membranes, Renal medulla.
Assay [5] has as its target T1, Vasopressin V2 receptor. Kind of assay: Compound was tested for inhibition against V2 vasopressin receptor in pig renal medullary membrane preparations. Type of assay: cell membranes, Renal medulla.

Each structure is given as a SMILES string. The source made the active and inactive calls. The rule behind the calls is not given here.

T1 sequence (P32307 whole entry): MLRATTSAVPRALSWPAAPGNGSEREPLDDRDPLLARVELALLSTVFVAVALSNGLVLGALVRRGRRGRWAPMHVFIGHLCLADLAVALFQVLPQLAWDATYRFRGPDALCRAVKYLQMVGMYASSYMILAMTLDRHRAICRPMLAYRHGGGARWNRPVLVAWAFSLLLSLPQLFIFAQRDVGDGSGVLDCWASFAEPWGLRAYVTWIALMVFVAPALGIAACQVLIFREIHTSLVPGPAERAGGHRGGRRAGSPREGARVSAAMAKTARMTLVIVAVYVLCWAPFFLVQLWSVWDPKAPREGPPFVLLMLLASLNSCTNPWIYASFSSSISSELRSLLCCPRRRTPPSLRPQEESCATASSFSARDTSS
Chain of Vasopressin V2 receptor (Sus scrofa) (P32307 whole entry): as above

Take `CCOc1ccc(C[C@@H]2NC(=O)CC(CC)(CC)SSC[C@H](C(=O)N3CCC[C@H]3C(=O)N[C@H](CCCN=C(N)N)C(N)=O)NC(=O)[C@@H](CC(N)=O)NC(=O)[C@H](C(C)C)NC(=O)[C@@H](Cc3ccccc3)NC2=O)cc1`: the ED300 with Rattus norvegicus [1] was determined as 0.12 mg/kg. The molecule also had a K bind in assay [2] of 450 nM.
In assay [2], `CCOc1ccc(C[C@H]2NC(=O)CC3(CCCCC3)SSC[C@H](C(=O)N3CCC[C@H]3C(=O)N[C@H](CCCN=C(N)N)C(=O)NCC(N)=O)NC(=O)[C@@H](CC(N)=O)NC(=O)[C@H](C(C)C)NC(=O)[C@@H](Cc3ccccc3)NC2=O)cc1` yielded a K bind of 12 nM.
`CCOc1ccc(C[C@H]2NC(=O)CC3(CCCCC3)SSC[C@@H](C(=O)N3CCC[C@H]3C(=O)N[C@@H](CCCN=C(N)N)C(=O)NCC(N)=O)NC(=O)[C@H](CC(N)=O)NC(=O)[C@H](C(C)C)NC(=O)[C@H](Cc3ccccc3)NC2=O)cc1` showed an ED300 in the assay with Rattus norvegicus [1] of 0.011 mg/kg.
The Ki is the equilibrium dissociation constant of an inhibitor or competing ligand from its target. Higher therefore signals lower affinity. Regarding `CCOc1ccc(C[C@H]2NC(=O)CC(C)(C)SSC[C@H](C(=O)N3CCC[C@H]3C(=O)N[C@H](CCCN=C(N)N)C(=O)NCC(N)=O)NC(=O)[C@@H](CC(N)=O)NC(=O)[C@H](C(C)C)NC(=O)[C@@H](Cc3ccccc3)NC2=O)cc1`, the K act in the assay filed under Sus scrofa was determined as 79 nM. Further, the ED300 result with Rattus norvegicus [3] was “inactive”. This molecule returned a K bind in assay [2] of 39 nM. Besides, the Ki entry at Vasopressin V2 receptor [4] is “Partial agonist”.
The molecule `CCOc1ccc(C[C@H]2NC(=O)CC(CC)(CC)SSC[C@@H](C(=O)N3CCC[C@H]3C(=O)N[C@@H](CCCN=C(N)N)C(=O)NCC(N)=O)NC(=O)[C@H](CC(N)=O)NC(=O)[C@H](C(C)C)NC(=O)[C@H](Cc3ccccc3)NC2=O)cc1` [listing 1 of 2 here] had an ED300 in the assay on Rattus norvegicus [1] of 0.023 mg/kg.
On the same count and under the same terms, in the case of `CCOc1ccc(C[C@H]2NC(=O)CC(CC)(CC)SSC[C@@H](C(=O)N3CCC[C@H]3C(=O)N[C@@H](CCCN=C(N)N)C(N)=O)NC(=O)[C@H](CC(N)=O)NC(=O)[C@H](C(C)C)NC(=O)[C@H](Cc3ccccc3)NC2=O)cc1` it was 0.012 mg/kg.
Take `CCOc1ccc(C[C@H]2NC(=O)CC(CC)(CC)SSC[C@H](C(=O)N3CCC[C@H]3C(=O)N[C@H](CCCN=C(N)N)C(N)=O)NC(=O)[C@@H](CC(N)=O)NC(=O)[C@H](C(C)C)NC(=O)[C@@H](Cc3ccccc3)NC2=O)cc1`: the K bind in assay [2] is 30 nM.
On the same count and under the same terms, in the case of `CCOc1ccc(C[C@H]2NC(=O)CC(CC)(CC)SSC[C@H](C(=O)N3CCC[C@H]3C(=O)N[C@H](CCCN=C(N)N)C(=O)NCC(N)=O)NC(=O)[C@@H](CC(N)=O)NC(=O)[C@H](C(C)C)NC(=O)[C@@H](Cc3ccccc3)NC2=O)cc1` it was 35 nM.
`CCOc1ccc(C[C@@H]2NC(=O)CC3(CCCCC3)SSC[C@H](C(=O)N3CCC[C@H]3C(=O)N[C@H](CCCN=C(N)N)C(N)=O)NC(=O)[C@@H](CC(N)=O)NC(=O)[C@H](C(C)C)NC(=O)[C@@H](Cc3ccccc3)NC2=O)cc1`: in the assay on Rattus norvegicus [1], the ED300 was 0.3 mg/kg. In assay [2], this molecule returned a K bind of 280 nM.
The corresponding values for `CCOc1ccc(C[C@H]2NC(=O)CC3(CCCCC3)SSC[C@H](C(=O)N3CCC[C@H]3C(=O)N[C@H](CCCN=C(N)N)C(N)=O)NC(=O)[C@@H](CC(N)=O)NC(=O)[C@H](C(C)C)NC(=O)[C@@H](Cc3ccccc3)NC2=O)cc1` are 0.01 mg/kg and 12 nM.
`CCOc1ccc(C[C@H]2NC(=O)CC(CC)(CC)SSC[C@@H](C(=O)N3CCC[C@H]3C(=O)N[C@@H](CCCNC(=N)N)C(N)=O)NC(=O)[C@H](CC(N)=O)NC(=O)[C@H](C(C)C)NC(=O)[C@H](Cc3ccccc3)NC2=O)cc1` gave a Ki at Vasopressin V2 receptor [5] of 8.9 nM.
At Vasopressin V2 receptor [5], `CCOc1ccc(C[C@H]2NC(=O)CC(CC)(CC)SSC[C@@H](C(=O)N3CCC[C@H]3C(=O)N[C@@H](CCCN=C(N)N)C(=O)NCC(N)=O)NC(=O)[C@H](CC(N)=O)NC(=O)[C@H](C(C)C)NC(=O)[C@H](Cc3ccccc3)NC2=O)cc1` [listing 2 of 2 here] displayed an inhibition constant (Ki) of 5.3 nM.
